What was measured:
mouse [1] = conditions: Carcinogenicity; cd1; Oral; Feed; dose end: 104 week; group: cholinesterase; cholinesterase / cholinesterase / cholinesterase / cholinesterase (che)
dog [2] = conditions: Chronic toxicity, beagle, Oral, Feed, dose end: 52 week, group: cholinesterase
rat [3] = conditions: Prenatal developmental toxicity study, other, Oral, Gavage/Intubation, dose end: 15 GD
rabbit [4] = conditions: Prenatal developmental toxicity study, Oral, Gavage/Intubation, dose end: 18 GD
dog [5] = conditions: Chronic toxicity; beagle; Oral; Feed; dose end: 24 month; group: cholinesterase; cholinesterase / cholinesterase / cholinesterase / plasma cholinesterase (che)
mouse [6] = conditions: Sub-acute repeat dose toxicity, other, Oral, Feed, dose end: 4 week, group: systemic
dog [7] = conditions: Chronic toxicity; beagle; Oral; Feed; dose end: 52 week; group: systemic; systemic / organ weight / liver / absolute + systemic / organ weight / liver / relative to body weight + systemic / pathology gross / liver…
rat [8] = conditions: Subchronic oral toxicity in rodents, sprague dawley, Feed, dose end: 13 week, group: systemic
mouse [9] = conditions: Subchronic oral toxicity in rodents, other, Feed, dose end: 13 week, group: systemic
rabbit [10] = conditions: Prenatal developmental toxicity study, new zealand white, Oral, Gavage/Intubation, dose end: 18 GD
rat [11] = conditions: Combined chronic toxicity/carcinogenicity, sprague dawley, Oral, Feed, dose end: 104 week
mouse [12] = conditions: Carcinogenicity; b6c3f1; Oral; Feed; dose end: 104 week; group: systemic; systemic / pathology microscopic / liver / cellular alteration + systemic / pathology microscopic / liver / fatty change + systemic / …
rat [13] = conditions: Prenatal developmental toxicity study, sprague dawley, Oral, Gavage/Intubation, dose end: 16 GD
rat [14] = conditions: Subchronic oral toxicity in rodents, sprague dawley, Feed, dose end: 90 day, group: systemic
rat [15] = conditions: Multigenerational reproductive toxicity study, sprague dawley, Oral, Feed, dose end: 2 generation
[16] = cholinesterase / cholinesterase / cholinesterase / plasma cholinesterase (che)
[17] = cholinesterase / cholinesterase / cholinesterase / plasma cholinesterase (che) + cholinesterase / cholinesterase / cholinesterase / brain …
[18] = group: developmental, developmental / developmental malformation / bone / delayed ossification
[19] = group: maternal, systemic / in life observation / clinical signs / hyperactivity
[20] = group: developmental, developmental / developmental malformation / bone / fused
[21] = group: maternal, systemic / in life observation / body weight / body weight gain + systemic / urinalysis / appearance and color / appearance and color
[22] = group: maternal, systemic / in life observation / body weight / body weight gain + systemic / urinalysis / appearance and color / appearance and color + …
[23] = systemic / organ weight / liver / absolute + systemic / organ weight / liver / relative to body weight + systemic / pathology microscopic / …
[24] = systemic / organ weight / liver / absolute
[25] = systemic / organ weight / liver / absolute + systemic / organ weight / kidney / absolute + systemic / organ weight / kidney / relative to …
[26] = systemic / in life observation / body weight / body weight + systemic / in life observation / body weight / body weight gain + systemic / in…
[27] = group: developmental, developmental / developmental malformation / bone / full supernumerary
[28] = group: developmental, developmental / developmental malformation / bone / full supernumerary + systemic / in life observation / body weight / fetal weight
[29] = group: maternal, systemic / in life observation / body weight / body weight gain + systemic / in life observation / food consumption / food consumption + …
[30] = group: cholinesterase, cholinesterase / cholinesterase / cholinesterase / erythrocyte cholinesterase (che) + cholinesterase / cholinesterase / cholinesterase / …
[31] = group: systemic, systemic / pathology microscopic / liver / eosinophilic focus
[32] = group: systemic, systemic / pathology microscopic / liver / eosinophilic focus + systemic / pathology microscopic / liver / hypertrophy
[33] = group: developmental, developmental / developmental malformation / bone / cervical + systemic / in life observation / body weight / fetal weight
[34] = group: developmental, developmental / developmental malformation / bone / cervical + systemic / in life observation / body weight / fetal weight + developmental…
[35] = systemic / pathology microscopic / liver / hypertrophy
[36] = group: offspring, developmental / developmental malformation / trunk / [other] + developmental / developmental malformation / ureter / hydroureter + systemic…
[37] = group: parental, systemic / in life observation / body weight / body weight + systemic / organ weight / pituitary gland / relative to body weight + systemic…
[38] = group: parental, systemic / organ weight / pituitary gland / relative to body weight + systemic / in life observation / water consumption / water consumption…

Work on CCOP(=S)(OCC)SCSP(=S)(OCC)OCC [Ethion] yielded an LEL (mouse [1]) of 1.2 mg/kg/day, an LOAEL (mouse [1]) greater than 1.2 mg/kg/day and an NEL (mouse [1]) of 0.22 mg/kg/day. The NOAEL (mouse [1]) was no less than 1.2 mg/kg/day, the LEL (dog [2]; [16]) was 0.049 mg/kg/day and the LOAEL (dog [2]; [16]) was 0.049 mg/kg/day. For the same compound, the NEL (dog [2]; [17]) was 0.026 mg/kg/day, the NOAEL (dog [2]; [17]) was 0.026 mg/kg/day and the LEL (rat [3]; [18]) was 2.5 mg/kg/day. It also gave an LOAEL (rat [3]; [18]) of 2.5 mg/kg/day, an NEL (rat [3]; [18]) of 0.6 mg/kg/day and an NOAEL (rat [3]; [18]) of 0.6 mg/kg/day. The LEL (rat [3]; [19]) was 2.5 mg/kg/day, the LOAEL (rat [3]; [19]) was 2.5 mg/kg/day and the NEL (rat [3]; [19]) was 0.6 mg/kg/day. It also gave an NOAEL (rat [3]; [19]) of 0.6 mg/kg/day, an LEL (rabbit [4]; [20]) of 9.6 mg/kg/day and an LOAEL (rabbit [4]; [20]) of 9.6 mg/kg/day. The NEL (rabbit [4]; [20]) was 2.4 mg/kg/day, the NOAEL (rabbit [4]; [20]) was 2.4 mg/kg/day and the LEL (rabbit [4]; [21]) was 2.4 mg/kg/day. For the same compound, the LOAEL (rabbit [4]; [21]) was 2.4 mg/kg/day, the NEL (rabbit [4]; [22]) was 0.6 mg/kg/day and the NOAEL (rabbit [4]; [22]) was 0.6 mg/kg/day. The LEL (dog [5]) was 0.403 mg/kg/day, the LOAEL (dog [5]) was 0.403 mg/kg/day and the NEL (dog [5]) was 0.123 mg/kg/day. The NOAEL (dog [5]) was 0.123 mg/kg/day.

In the case of CCCOCC(=Nc1ccc(Cl)cc1C(F)(F)F)n1ccnc1 [Triflumizole], the LOAEL (mouse [6]; [23]) is reported as 397 mg/kg/day, the NEL (mouse [6]; [23]) is reported as 3.8 mg/kg/day and the NOAEL (mouse [6]; [23]) is reported as 40.3 mg/kg/day. The LEL (mouse [6]; systemic / organ weight / liver / relative to body weight + systemic / urinalysis / glucose / glucose) was 40.3 mg/kg/day, the LEL (dog [7]) was 34.1 mg/kg/day and the LOAEL (dog [7]) was 34.1 mg/kg/day. For the same compound, the NEL (dog [7]) was 10 mg/kg/day, the NOAEL (dog [7]) was 10 mg/kg/day and the LEL (rat [8]; [24]) was 1.4 mg/kg/day. For the same compound, the NEL (rat [8]; [24]) was less than 1.4 mg/kg/day, the LOAEL (rat [8]; [25]) was 176 mg/kg/day and the NOAEL (rat [8]; [25]) was 15.3 mg/kg/day. For the same compound, the LOAEL (mouse [9]; systemic / in life observation / body weight / body weight + systemic / in life observation / body weight / body weight gain) was 381 mg/kg/day, the LEL (mouse [9]; [26]) was 381 mg/kg/day and the NEL (mouse [9]; [26]) was 33.1 mg/kg/day. For the same compound, the NOAEL (mouse [9]; [26]) was 33.1 mg/kg/day, the LEL (rabbit [10]; [27]) was 100 mg/kg/day and the LOAEL (rabbit [10]; [27]) was 100 mg/kg/day. The NEL (rabbit [10]; [28]) was 50 mg/kg/day, the NOAEL (rabbit [10]; [28]) was 50 mg/kg/day and the LEL (rabbit [10]; [29]) was 100 mg/kg/day. It also gave an LOAEL (rabbit [10]; [29]) of 100 mg/kg/day, an NEL (rabbit [10]; [29]) of 50 mg/kg/day and an NOAEL (rabbit [10]; [29]) of 50 mg/kg/day. For the same compound, the LEL (rat [11]; [30]) was 14.4 mg/kg/day, the LOAEL (rat [11]; [30]) was greater than 59.4 mg/kg/day and the NEL (rat [11]; [30]) was 3.5 mg/kg/day. It also gave an NOAEL (rat [11]; [30]) of no less than 59.4 mg/kg/day, an LOAEL (rat [11]; [31]) of 3.5 mg/kg/day and an NOAEL (rat [11]; [31]) of less than 3.5 mg/kg/day. For the same compound, the LEL (rat [11]; [32]) was 3.5 mg/kg/day, the NEL (rat [11]; [32]) was less than 3.5 mg/kg/day and the LEL (mouse [12]) was 67.4 mg/kg/day. It also gave an LOAEL (mouse [12]) of 67.4 mg/kg/day, an NEL (mouse [12]) of 16.2 mg/kg/day and an NOAEL (mouse [12]) of 16.2 mg/kg/day. It also gave an LEL (rat [13]; [33]) of 35 mg/kg/day, an LOAEL (rat [13]; [33]) of 35 mg/kg/day and an NEL (rat [13]; [34]) of 10 mg/kg/day. It also gave an NOAEL (rat [13]; [34]) of 10 mg/kg/day, an LEL (rat [13]; [29]) of 35 mg/kg/day and an LOAEL (rat [13]; [29]) of 35 mg/kg/day. For the same compound, the NEL (rat [13]; [29]) was 10 mg/kg/day, the NOAEL (rat [13]; [29]) was 10 mg/kg/day and the LEL (rat [14]; [35]) was 4.1 mg/kg/day. For the same compound, the NEL (rat [14]; [35]) was less than 4.1 mg/kg/day, the LOAEL (rat [14]; systemic / pathology microscopic / liver / hypertrophy + systemic / pathology microscopic / liver / vacuolization) was 40.9 mg/kg/day and the NOAEL (rat [14]; systemic / pathology microscopic / liver / hypertrophy + systemic / pathology microscopic / liver / vacuolization + systemic / hematology / …) was 4.1 mg/kg/day. It also gave an LOAEL (rat [15]; group: offspring, developmental / developmental malformation / trunk / [other] + developmental / developmental malformation / ureter / hydroureter) of 8.5 mg/kg/day, an LEL (rat [15]; [36]) of 8.5 mg/kg/day and an NEL (rat [15]; [36]) of 3.5 mg/kg/day. For the same compound, the NOAEL (rat [15]; [36]) was 3.5 mg/kg/day, the LOAEL (rat [15]; [37]) was greater than 8.5 mg/kg/day and the NOAEL (rat [15]; [37]) was no less than 8.5 mg/kg/day. It also gave an LEL (rat [15]; [38]) of 1.5 mg/kg/day, an NEL (rat [15]; [38]) of less than 1.5 mg/kg/day and an NOAEL (rat [15]; group: reproductive, reproductive / reproductive performance / gestational length / gestational length) of 3.5 mg/kg/day. The LOAEL (rat [15]; group: reproductive, reproductive / reproductive performance / gestational length / gestational length + reproductive / offspring survival early / litter size / …) was 8.5 mg/kg/day, the NEL (rat [15]; group: reproductive, reproductive / reproductive performance / gestational length / gestational length + reproductive / reproductive performance / mating / …) was 1.5 mg/kg/day and the LEL (rat [15]; group: reproductive, reproductive / reproductive performance / mating / mating) was 3.5 mg/kg/day.
